According to patent US7294687B2, “Parenteral formulations of a peptide for the treatment of systemic lupus erythematosus” (TEVA Pharmaceutical Industries, Ltd., priority 2003, dated 2007):
Like-named read-outs stand apart in the source and are kept apart here.

Assay: Solubility of Compound 1 peptide, formulation development
Type: physicochemical
Text: In order to develop a formulation for sub-cutaneous injection, it is also desirable that the pH be in the range of 4 to 9 and that the solution be iso-osmotic.
The pH was adjusted if needed.

With H-GYYWSWIRQPPGKGEEWIG-OH [Compound 1] the solubility (only above pH 9.2 and below pH 3.0, buffers and pH adjustment agents, read-out: solubility levels) was ≥ 2000 µg/mL and the solubility (water (aqueous solution), acetate salt, read-out: aqueous solubility of the peptide) was < 500 µg/mL.
